Experimental data: US6605424B1, “Method of detecting inhibitors of agonist-specific desensitization” (Duke University, priority 1989, dated 2003)
Values joined by “and” are separate entries in the source; they are usually repeats but may differ in a detail not shown here. Equal values may be shown once. Residues, ends and D or L forms follow the SMILES beside them. No end group written: not given here.

Assays:
βAR kinase [1] = target: T1, βAR kinase (Bos taurus, UniProt P21146); assay: Inhibition of β2AR phosphorylation by βAR kinase by synthetic peptides (Example III); type: biochemical, bovine; conditions: for inhibition of β2AR phosphorylation: tested at ˜0.5 mM
T1 construct: βAR kinase was purified from bovine cerebral cortex; from tissue; host or cells: bovine cerebral cortex
T1 sequence (P21146 1-689): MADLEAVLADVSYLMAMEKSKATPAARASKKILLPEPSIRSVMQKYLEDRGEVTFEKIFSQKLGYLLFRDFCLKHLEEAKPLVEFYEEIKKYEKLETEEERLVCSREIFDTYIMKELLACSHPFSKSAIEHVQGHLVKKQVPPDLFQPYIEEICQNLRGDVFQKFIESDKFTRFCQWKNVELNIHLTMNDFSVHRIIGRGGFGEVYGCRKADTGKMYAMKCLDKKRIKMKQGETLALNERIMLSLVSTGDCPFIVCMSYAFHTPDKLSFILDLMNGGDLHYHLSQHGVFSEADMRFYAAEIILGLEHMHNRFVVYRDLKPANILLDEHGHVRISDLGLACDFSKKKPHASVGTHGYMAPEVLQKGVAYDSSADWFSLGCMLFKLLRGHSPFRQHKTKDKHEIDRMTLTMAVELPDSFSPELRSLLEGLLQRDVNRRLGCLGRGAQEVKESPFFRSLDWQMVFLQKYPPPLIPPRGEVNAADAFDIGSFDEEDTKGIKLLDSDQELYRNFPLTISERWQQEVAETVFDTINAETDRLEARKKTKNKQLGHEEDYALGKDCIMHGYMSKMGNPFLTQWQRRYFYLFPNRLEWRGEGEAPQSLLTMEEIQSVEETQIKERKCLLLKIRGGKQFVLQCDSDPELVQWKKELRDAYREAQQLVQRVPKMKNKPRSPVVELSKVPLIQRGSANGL
Experimental: FIG. 13. Inhibition of β2AR phosphorylation by synthetic peptides. Reconstituted β2AR (˜0.4 pmol) was incubated for 30 min at 30° with purified βAR kinase (˜30 ng) in the presence of 50 mM Tris-HCl, pH 7.5, 2 mM EDTA, 10 mM NaCl, 5 mM MgCl2, 5 mM sodium phosphate, 50 μM (−)-isoproterenol and 0.10 mM [γ^32P]ATP (2.0 cpm/fmol). Synthetic β2AR peptides were varied from 0 to 1 mM and included CI (Δ), CII (▴), CIII-2 (◯) and CT-1 (●). Reactions were stopped by the addition of […]. ^32P-labeled receptor was determined by cutting and counting the dried gel following autoradiography.
The β2-adrenergic receptor from hamster lung was purified to apparent homogeneity by sequential affinity and high performance liquid chromatography as described (Benovic et al (1984) Biochemistry 23:4510-4518). The purified receptor was reinserted into phosphatidylcholine vesicles as previously described (Cerione et al (1983) Nature 306:562-566). The protein-lipid pellets were resuspended in 20 mM Tris-HCl, pH 7.2, 2 mM EDTA and used as a substrate for the βAR kinase.
βAR kinase was purified from bovine cerebral cortex by modification of a previously described procedure (Benovic et al (1987) J. Biol. Chem. 262:9026-9032). Briefly, 250 g of bovine cortex was homogenized and the resulting high speed supernatant fraction was precipitated with 13-26% ammonium sulfate. This material was initially chromatographed on an Ultrogel AcA34 column equilibrated with 5 mM Tris-HCl, pH 7.5, 2 mM EDTA, 5 μg/ml leupeptin, 5 μg/ml pepstatin, 15 μg/ml benzamidine, 0.2 mM phenylmethyl sulfonyl fluoride (buffer A). The peak activity was diluted 1:1 with buffer A containing 0.02% triton X-100 and applied to a DEAE Sephacel column. Elution was accomplished with a 0-80 mM NaCl gradient in buffer A containing triton X-100. The peak activity was then applied directly to a CM Fractogel column and eluted with a 0-100 mM NaCl gradient in buffer A containing triton X-100. The purified kinase was stored at 4° C.
The inhibition of substrate phosphorylation by βAR kinase in the presence of synthetic peptides was assayed as follows. Reconstituted βAR (0.2-1 pmol/inclubation) was incubated with βAR kinase (10-30 ng) in a buffer containing 50 mM Tris-HCl, pH 7.5, 2 mM EDTA, 10 mM NaCl, 5 mM MgCl2, 5 mM sodium phosphate, 50 μM (−)-isoproterenol, 0.10 mM [γ-^32P]ATP (1-3 cpm/fmol) at 30° C. for 30 min. Synthetic β2AR peptides were varied in concentration from 0 to 2 mM. Reactions were quenched by the addition of SDS sample buffer followed by gel electrophoresis. In some experiments urea treated rod outer segments (Wilden et al (1982) Biochemistry 21:3014-3022; Shichi et al (1978) J. Biol. Chem. 253:7040-7046) were used as the substrate for βAR kinase. To further define the specificity of the peptide inhibition, phosvitin, casein (see Example I) and the synthetic peptides CT-2 and CT-3 were used as substrates for βAR kinase.
SDS polyacrylamide gel electrophoresis was performed by the method of Laemmli (Nature (1970) 227:[…]) using 10 or 15% homogeneous slab gels. SDS sample buffer contained 8% SDS, 10% glycerol, 5% β-mercaptoethanol, 25 mM Tris-HCl, pH 6.5 and 0.003% bromphenol blue. SDS urea polyacrylamide gel electrophoresis was carried out using 6.5 M urea, 0.1% SDS, 100 mM H3PO4, pH 6.8 with Tris-HCl and 9% acrylamide (Swank et al (1971) Anal. Biochem. 39:462). SDS urea sample buffer contained 1% SDS, 8M urea, 10 mM H3PO4, pH 6.8 with Tris-HCl, 1% β-mercaptoethanol and 0.003% bromphenol blue.

βAR kinase [2] = target: T1, βAR kinase; assay: Phosphorylation of rhodopsin (urea-treated rod outer segments) by βAR kinase; type: biochemical, bovine; conditions: for Hill coefficient of inhibition: data of FIG. 1; for inhibition of βAR kinase: polycations, FIG. 3
Experimental: βAR kinase was purified from bovine cerebral cortex by modification of procedure of Benovic et al (J. Biol. Chem. (1987) 262:9026-9032). Briefly, 250 g of bovine cerebral cortex were homogenized with a Brinkmann tissue disrupter and centrifuged (40,000×g, 30 min). The supernatant was then precipitated with 13-26% ammonium sulfate. This material was initially chromatographed on a Ultrogel AcA34 column equilibrated with 5 mM Tris-HCl, pH 7.5, 2 mM EDTA, 10 μg/ml leupeptin, 5 μg/ml pepstatin, 10 μg/ml benzamidine, 0.2 mM phenylmethylsulfonyl fluoride (buffer A). The peak activity was diluted with an equal volume of buffer A containing 0.04% Triton X-100 before being applied to a DEAE-Sephacel column. Elution was accomplished with a 0-80 mM NaCl gradient in buffer A containing 0.02% Triton X-100. The peak activity was then applied to a CM-Fractogel column and eluted with a 0-100 mM NaCl gradient in buffer A containing 0.02% Triton X-100. The purified kinase is stable at 4° C. for several months. For these studies the βAR kinase preparations were >75% pure.
Rod outer segments were prepared from bovine retinas by stepwise sucrose gradient centrifugation (Wilden et al Biochemistry (1982) 21:3014-3022). Rhodopsin kinase-free rod outer segments were prepared by treatment with 5 M urea (Shichi et al J. Biol. Chem. (1978) 253:7040-7046) and consisted of ˜95% rhodopsin, as assessed by Coomassie Blue staining of sodium dodecyl sulfate-polyacrylamide gels.
Urea-treated rod outer segments were phosphorylated with βAR kinase as follows. Urea-treated rod outer segments (˜4 μg of rhodopsin) were incubated with βAR kinase (˜0.1 μg) for 10-15 min at 30° C. in the presence of 40 mM Tris-HCl, pH 7.4, 10 mM NaCl, 5 mM MgCl2, 1.5 mM EDTA, and 65 μM ATP (˜1 cpm/fmol) (total reaction volume was 40 μl). Reactions were stopped by the addition of 40 μl of sodium dodecyl sulfate sample buffer (see below) followed by sodium dodecyl sulfate-polyacrylamide gel electrophoresis. After autoradiography, the phosphorylated rhodopsin bands were excised and counted.
Sodium dodecyl sulfate-polyacrylamide gel electrophoresis was performed by the method of Laemmli (Nature (1970) 227:680-685) using 10% homogeneous polyacrylamide slab gels. Sample buffer contained 8% sodium dodecyl sulfate, 10% glycerol, 5% 3-mercaptoethanol, 25 mM Tris-HCl, pH 6.5, and 0.003% bromphenol blue. After electrophoresis, gels were dried with a Bio-Rad gel dryer prior to autoradiography.

[3] = β2AR as substrate, read-out: IC50 (μM), first intracellular loop peptides as inhibitors of βAR kinase
[4] = rhodopsin as substrate, mean ± S.E.
[5] = IC50 (concentration of compound which gave 50% inhibition of βAR kinase), rhodopsin as substrate
[6] = IC50 (concentration of compound which gave 50% inhibition of βAR kinase), rhodopsin as substrate, mean ± S.E.
[7] = read-out: IC50 (concentration of compound which gave 50% inhibition of βAR kinase), rhodopsin as substrate
[8] = hamster β2AR peptides, ND = no significant inhibition at ˜500 μM, read-out: IC50 (μM), inhibition of β2AR phosphorylation by βAR kinase

AIAKTPRLQTLTNLF [β1AR]
IC50 (βAR kinase [1]; [3]): 700 µM

AIAKFQRLQTVTNYF [β2AR (57-71, E → Q), AIAKFORLQTVTNYF]
IC50 (βAR kinase [1]; [3]): 280 µM

de-N-sulfated heparin
Hill coefficient of inhibition (βAR kinase [2]): ~2 | fold weaker than heparin (βAR kinase [2]; rhodopsin as substrate): ~8 fold | IC50 (concentration of compound which gave 50% inhibition of βAR kinase) (βAR kinase [2]; [4]): 6.0 ± 2.4 mg/L

O=S(=O)(O)OC1C(OS(=O)(=O)O)C(OS(=O)(=O)O)C(OS(=O)(=O)O)C(OS(=O)(=O)O)C1OS(=O)(=O)O (centres unmarked) [Inositol hexasulfate, inositol hexasulfate]
IC50 (βAR kinase [2]; [5]): 13.5 µM | IC50 (βAR kinase [2]; [6]): 18.2 µM | times more potent than inositol hexaphosphate (βAR kinase [2]; rhodopsin as substrate): ~270 times

NCCCCNCCCN [spermidine]
inhibition of βAR kinase (βAR kinase [2]): weak inhibitors

Cc1ncc(COP(=O)(O)O)c(C=O)c1O [Pyridoxal phosphate, pyridoxal phosphate]
IC50 (βAR kinase [2]; [5]): 900 µM | IC50 (βAR kinase [2]; [6]): 898 µM | concentration range of inhibition (βAR kinase [2]; rhodopsin as substrate): millimolar range

AVFTSRALKAPQNLF [α2AR]
IC50 (βAR kinase [1]; [3]): > 1000 µM

O=S(=O)(O)NC1C(O)OC(COS(=O)(=O)O)C(O)C1O (centres unmarked) [Glucosamine 2,6-disulfate, glucosamine 2,6-disulfate]
IC50 (βAR kinase [2]; [7]): 7300 µM | concentration range of inhibition (βAR kinase [2]; rhodopsin as substrate): millimolar range | IC50 (concentration of compound which gave 50% inhibition of βAR kinase) (βAR kinase [2]; [4]): 2800 mg/L

chondroitin sulfate C
IC50 (concentration of compound which gave 50% inhibition of βAR kinase) (βAR kinase [2]; [4]): 6 mg/L

polyglutamic acid
IC50 (βAR kinase [2]; [7]): 2 µM | IC50 (concentration of compound which gave 50% inhibition of βAR kinase) (βAR kinase [2]; [4]): 27 ± 2 mg/L

AIAKFERAQTVTAYF [β2AR (57-71, L → A, N → A)]
IC50 (βAR kinase [1]; [3]): 43 µM

heparan sulfate
IC50 (concentration of compound which gave 50% inhibition of βAR kinase) (βAR kinase [2]; [4]): 1.8 mg/L

TAIAKFERLQTVTNYFITS [β2AR (56-74)]
IC50 (βAR kinase [1]; [8]): ~40 µM and 40 µM | IC50 (βAR kinase [1]; [3]): 40 µM

SHVPDHDVTEERDEAW [NT (17-32)]
inhibition of β2AR phosphorylation (βAR kinase [1]): do not inhibit

chondroitin sulfate B
IC50 (concentration of compound which gave 50% inhibition of βAR kinase) (βAR kinase [2]; [4]): 25 mg/L

dextran sulfate
Hill coefficient of inhibition (βAR kinase [2]): ~2 | IC50 (βAR kinase [2]; [7]): 0.15 µM | IC50 (concentration of compound which gave 50% inhibition of βAR kinase) (βAR kinase [2]; [4]): 0.76 ± 0.21 mg/L

NCCCNCCCCNCCCN [Spermine, spermine]
inhibition of βAR kinase (βAR kinase [2]): weak inhibitors

polyaspartic acid
IC50 (βAR kinase [2]; [7]): 1.3 µM | IC50 (concentration of compound which gave 50% inhibition of βAR kinase) (βAR kinase [2]; [4]): 14 mg/L

VTVQHKKLRTPLNYI [Rhodopsin]
IC50 (βAR kinase [1]; [3]): > 1000 µM

CC[C@H](C)[C@H](NC(=O)[C@H](C)NC(=O)[C@H](CCCCN)NC(=O)[C@H](CCC(N)=O)NC(=O)[C@H](Cc1c[nH]cn1)NC(=O)[C@@H](N)[C@@H](C)O)C(=O)N[C@@H](CC(=O)O)C(=O)N[C@@H](CS)C(=O)N[C@@H](Cc1ccc(O)cc1)C(=O)N[C@@H](Cc1c[nH]cn1)C(=O)N[C@@H](CCCCN)C(=O)N[C@@H](CCC(=O)O)C(=O)N[C@H](C(=O)N[C@@H](CS)C(=O)O)[C@@H](C)O [EII (177-190)] (H-THQKAIDCYHKETC-OH; N-terminus and C-terminus assumed)
inhibition of β2AR phosphorylation (βAR kinase [1]): do not inhibit

KFERLQT [β2AR (60-66), KFERLQT]
IC50 (βAR kinase [1]; [3]): 2600 µM

AIAAFEALQTVTNYF [β2AR (57-71, K → A, R → A)]
IC50 (βAR kinase [1]; [3]): 88 µM

KMWNFGNFWC [EI (97-106)]
IC50 (βAR kinase [1]; [8]): 300 µM

O=P(O)(O)O[C@H]1[C@H](OP(=O)(O)O)[C@@H](OP(=O)(O)O)[C@H](OP(=O)(O)O)[C@@H](OP(=O)(O)O)[C@H]1OP(=O)(O)O [Inositol hexaphosphate, inositol hexaphosphate]
IC50 (βAR kinase [2]; [5]): 3600 µM | IC50 (βAR kinase [2]; [6]): 5040 µM

O=C(O)C(COP(=O)(O)O)OP(=O)(O)O (centres unmarked) [2,3-Diphosphoglycerate, 2,3-diphosphoglycerate]
IC50 (βAR kinase [2]; [7]): 1100 µM | concentration range of inhibition (βAR kinase [2]; rhodopsin as substrate): millimolar range | IC50 (concentration of compound which gave 50% inhibition of βAR kinase) (βAR kinase [2]; [4]): 838 mg/L
